This is an account of results in US6762189B1, “5-pyrimidinecarboxamide derivatives and the pharmaceutical compositions containing said derivatives” (Dong Wha Pharm. Ind. Co., Ltd., priority 1999, dated 2004).

One data set concerns the target T1, HBV polymerase (Hepatitis B virus genotype A2 subtype adw2, UniProt P03159).
T1 construct: made in house; host or cells: E. coli
Nature of the data set: In vitro reverse transcription activity of HBV polymerase (ELISA-type, DIG/biotin nucleotides). In kind it is biochemical. Particulars: read-out: Inhibition activity on HBV-RT (%); for inhibition at 0.01 µg/mL: 0.01 μg/ml test compound; for inhibition at 0.1 µg/mL: 0.1 μg/ml test compound; for inhibition at 1 µg/mL: 1 μg/ml test compound. Here is the method:
The following in vitro experiment was performed to determine the effect of the compounds of formula 1 on the activity of HBV polymerase during reverse transcription.
The present inventors submitted application for a patent concerning HBV polymerase genetically expressed in and separated from E. coli, the process of its preparation, and the method to measure the enzyme activities (KR 94-3918, KR 96-33998). In the present experiments HBV polymerase was used which had been expressed in E. coli as stated above.
The method used in the present invention to measure in vitro reverse transcribing activities of HBV polymerase is as follows. Basic principles are the same as for ELISA. Nucleotides with biotin or digoxigenin group attached are included as substrates and anti-DIG antibodies attached to peroxidase enzyme recognize the polymerized substrates.
To the wells coated with streptavidin, 20 μl of HBV polymerase, 20 μl of reaction mixture (10 μM each of DIG-UTP and Biotin-UTP, 46 mM Tris-HCl, 266 mM KCl, 27.5 mM MgCl2, 9.2 mM DTT substrate/primer hybrid), and 20 μl of test compound (added to 1, 0.1, and 0.01 μg/ml) were added and allowed to react a 22° C. for 15 hrs. During this reaction, HBV polymerase catalyzes DNA synthesis and digoxigenin and biotin attached to nucleotides form bonds with streptavidin coated on the bottom of wells. When the reaction was done, each well was washed with 250μl of cleaning buffer (pH 7.0) for 30 seconds, which was repeated five times to remove remaining impurities. 200 μl of anti-DIG-POD antibody was added to each well and allowed to react for 1 hr at 37° C., and the wells were washed with cleaning buffer to remove impurities. 200μl each of ABTS™, a substrate of peroxidase, was then added and allowed to react at room temperature for 30 min. Absorbance was measured at 405 nm using ELISA reader.
The percentage of reduction in HBV polymerase activities for reverse transcription was calculated using the group without test compound as a control and the results are shown in Table 3.

In data set [1] the target is T2, HIV reverse transcriptase (Human immunodeficiency virus type 1 group M subtype B, UniProt P04585).
T2 construct: activities of HIV reverse transcriptase; purchased Boehringer Mannheim
Description: In vitro HIV reverse transcriptase activity (non-radioactive reverse transcriptase assay kit). The class given is biochemical. The method, then: The following in vitro experiments were done to determine the effect of compounds of formula 1 on the reduction of HIV enzyme activities in reverse transcription.
Non-radioactive reverse transcriptase assay kit (Boehringer Mannheim) was used in the measurement of in vitro transcriptase activities. 20 μl (40 ng) of HIV transcriptase and 20 μl of reaction mixture containing matrix-primer hybrid poly (A) oligo (dT) 15, DIG(digoxigenin)-dUTP, biotin-dUTP, and TTP were added to wells coated with streptavidin. Test compounds were also added at the final concentrations of 0.1 and 1 μg/ml and allowed to react at 37° C. for 1 hr. At this time, DNA is formed from RNA by the action of HIV transcriptase, forming bonds with streptavidin coated on the bottom of wells because of digoxigenin and biotin moieties attached to nucleotides.
When the reaction was completed, each well was washed with 250 μl. of cleaning buffer (pH 7.0) for 30 sec. five times to remove remaining impurities. 200 μl of anti-DIG-POD […] was added to each well, allowed to react at 37° C. for 1 hr and washed as above to remove impurities. 200 μl of ABTS™, a substrate for peroxidase, was added to each well and allowed to react at room temperature for 30min. Absorbance at 405 nm was then read for each solution using ELISA reader and used for quantitative determination of inhibitory effect on the HIV transcriptase activities. The percentage of reduction in the activities of HIV reverse transcriptase was calculated using the group without test compound as control and the results are represented in Table 5.

For a further data set, the system named is HBV. Nature of the data set: Inhibition of HBV proliferation in HBV producing cell line HepG 2.2.15 (competitive PCR of culture supernatant). The class given is cell-based, Hepatitis B virus. Particulars: Hepatitis B virus, HepG2.2.15, 168 h, HepG 2.2.15, one week, read-out: Inhibitory effect on the HBV proliferation, Inhibition activity on HBV-RT (%). The method, then:
The following experiment was performed to determine inhibitory effects of compounds of formula on the proliferation of HBV producing cell line.
To test for antiviral effect, replication and proliferation of HBV were measured in HepG 2.2.15, a human liver cancer cell line.
The cell concentration was adjusted to 1×10^5 cells/ml and 1 ml was added to each well of a 24-well cell culture plate, which was then kept in a culture box for 3-4 days at 37° C. under 5% CO2 until cells grew sufficiently, changing culture medium everyday. When the cells matured sufficiently, the test compounds were added to the final concentrations of 0.01, 0.1, and 1 μg/ml. One week after the addition of test compounds, he culture solution was centrifuged at 5,000 rpm for 10 min. 25 μl of supernatant was transferred to a new tube and 5 μl of lysis solution [0.54N NaOH, 0.06% NP40] was added to each tube. After keeping the tube at 37° C. for 1 hr, 30 μl . of neutralizing solution [0.09NHCl, 0.1MTris-HCl, pH7.4] was added as a reaction solution for competitive polymerase chain reaction (PCR).
PCR was performed using genetic sequence of HBV core protein as a matrix. PCR reaction was carried out by adding 1 unit of Taq polymerase enzyme to 25 pmol of each primer, 250 μM dNTP, 5 μl of PCR reaction solution [0.54N NaOH, 0.06% NP40, 0.09N HCl, 0.1M Tris-HCl, pH 7.4].
DNA polymerized by PCR was electrophoresed on Agarose gel and quantitatively analyzed using an image analyzer (Gel Dcc 1000, Bio-Rad) in order to evaluate the effect of compounds of the present invention on the reduction of HBV proliferation.
3TC (lamivudine) was used as a positive control at the same concentrations as those of the test compounds. The percentage of reduction in HBV proliferation was calculated using the group without test compound as a control and the results are represented in Table 4.

Molecules are shown by their SMILES.

T1 sequence (P03159 whole entry): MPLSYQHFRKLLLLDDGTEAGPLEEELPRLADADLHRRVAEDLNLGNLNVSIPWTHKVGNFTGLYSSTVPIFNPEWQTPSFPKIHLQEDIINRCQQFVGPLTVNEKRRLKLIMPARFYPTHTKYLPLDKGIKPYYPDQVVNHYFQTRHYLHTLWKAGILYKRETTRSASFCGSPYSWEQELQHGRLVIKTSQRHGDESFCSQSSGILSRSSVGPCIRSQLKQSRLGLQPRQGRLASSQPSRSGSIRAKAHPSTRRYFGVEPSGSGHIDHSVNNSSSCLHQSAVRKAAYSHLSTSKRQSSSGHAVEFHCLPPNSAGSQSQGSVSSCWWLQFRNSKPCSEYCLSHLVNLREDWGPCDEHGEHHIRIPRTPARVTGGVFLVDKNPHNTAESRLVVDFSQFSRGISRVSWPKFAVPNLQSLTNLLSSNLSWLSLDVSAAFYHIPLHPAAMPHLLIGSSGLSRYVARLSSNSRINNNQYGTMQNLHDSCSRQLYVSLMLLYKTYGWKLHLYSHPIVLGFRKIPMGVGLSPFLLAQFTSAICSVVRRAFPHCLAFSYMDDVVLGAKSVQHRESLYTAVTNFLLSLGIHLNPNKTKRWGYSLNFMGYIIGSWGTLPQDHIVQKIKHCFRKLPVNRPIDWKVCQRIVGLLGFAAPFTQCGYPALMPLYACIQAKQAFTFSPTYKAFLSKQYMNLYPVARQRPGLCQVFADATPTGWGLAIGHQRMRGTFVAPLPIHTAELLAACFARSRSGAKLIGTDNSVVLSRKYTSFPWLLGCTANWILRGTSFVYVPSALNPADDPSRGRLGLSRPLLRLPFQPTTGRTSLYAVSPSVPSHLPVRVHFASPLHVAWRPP

With `CSc1ncc(C(=O)NN2CCOCC2)c(Nc2ccc3[nH]ncc3c2)n1` (hydrate or solvate) [Example 35, 4-(1H-5-indazolylamino)-2-methylthio-N-(4-morpholinyl)-5-pyrimidinecarboxamide], the melting point (usually the temperature of the solid-liquid transition) was 239 to 242 °C.

With `CSc1ncc(C(=O)N(C)CCO)c(Nc2ccc3[nH]ncc3c2)n1` [Example 9, N-hydroxyethyl-N-methyl-4-(1H-5-indazolylamino)-2-methylthio-5-pyrimidine Carboxamide], the inhibition at 0.01 µg/mL on HBV polymerase was found to be 30%; in the data set with HBV (0.01 μg/ml) it was 20%. For the same compound, the inhibition at 0.1 µg/mL was 54% at HBV polymerase and 48% with HBV (0.1 μg/ml). The results for the inhibition at 1 µg/mL on HBV polymerase and in the data set with HBV (1 μg/ml) were 75% and 65%, respectively. Besides, the “Inhibitory effect on the activities of HIV reverse transcriptase, Inhibition activity on HBV-RT (%)” value in data set [1] (0.1 μg/ml test compound) came out at 52%. For the same compound, the “Inhibition of HIV reverse transcriptase activity” value in data set [1] (1 μg/ml test compound) was 84%.

Take `COCCNC(=O)c1cnc(SC)nc1Nc1ccc2cn[nH]c2c1` [Example 14, 4-(1H-6-indazolylamino)-N-(2-methoxyethyl)-2-methylthio-5-pyrimidinecarboxamide]: the melting point is 225 to 228 °C. At HBV polymerase, the inhibition at 0.01 µg/mL was 25%, the inhibition at 0.1 µg/mL came to 42% and the inhibition at 1 µg/mL was determined as 60%.

In turn, `CSc1ncc(C(=O)NCCN(C)C)c(Nc2ccc3[nH]ncc3c2)n1` [Example 17, N-[2-(dimethylamino)ethyl]-4-(1H-5-indazolylamino)-2-methylthio-5-pyrimidinecarboxamide] registered a melting point of 111 to 114 °C. Also, on HBV polymerase, the inhibition at 0.01 µg/mL was found to be 15%, the inhibition at 0.1 µg/mL turned out to be 51% and the inhibition at 1 µg/mL was 80%.

Turning to `CSc1ncc(C(=O)NN2CCN(C)CC2)c(Nc2ccc3[nH]ncc3c2)n1` [Example 21, 4-(1H-5-indazolylamino)-N-(4-methyl-1-piperazinyl)-2-methylthio-5-pyrimidinecarboxamide], the melting point lay within 251 to 253 °C. In addition, on HBV polymerase, the inhibition at 0.01 µg/mL came out at 40%, the inhibition at 0.1 µg/mL came to 54% and the inhibition at 1 µg/mL came to 78%.

For `CSc1ncc(C(=O)NN2CCN(C)CC2)c(Nc2ccc3cn[nH]c3c2)n1` [Example 22, 4-(1H-6-indazolylamino)-N-(4-methyl-1-piperazinyl)2-methylthio-5-pyrimidinecarboxamide], the melting point fell in the range of 244 to 247 °C. On HBV polymerase, the inhibition at 0.01 µg/mL turned out to be 28%, the inhibition at 0.1 µg/mL came to 46% and the inhibition at 1 µg/mL came to 72%.

In turn, `COC(=O)[C@@H](NC(=O)c1cnc(SC)nc1Nc1ccc2[nH]ncc2c1)[C@@H](C)O` [Example 23, 4-(1H-5-indazolylamino)-N-[(1S)-1-(methoxycarbonyl)-(2R)-2-hydroxypropyl]-2-methylthio-5-pyrimidinecarboxamide] yielded a melting point of 227 to 232 °C. Further, on HBV polymerase, the inhibition at 0.01 µg/mL amounted to 18%, the inhibition at 0.1 µg/mL was found to be 40% and the inhibition at 1 µg/mL came out at 51%.

With `COC(=O)[C@@H](NC(=O)c1cnc(SC)nc1Nc1ccc2cn[nH]c2c1)[C@@H](C)O` [Example 24, 4-(1H-6-indazolylamino)-N-[(1S)-1-(methoxycarbonyl)-(2R)-2-hydroxypropyl]-2-methylthio-5-pyrimidinecarboxamide], the melting point is 226 to 228 °C. At HBV polymerase, the inhibition at 0.01 µg/mL came to 50%, the inhibition at 0.1 µg/mL was found to be 63% and the inhibition at 1 µg/mL came out at 82%.

`CSc1ncc(C(=O)NCCCn2ccnc2)c(Nc2ccc3cn[nH]c3c2)n1` [Example 30, N-[3-(1H-1-imidazolyl)propyl]-4-(1H-6-indazolylamino)-2-methylthio-5-pyrimidinecarboxamide] came in with a melting point of 230 to 232 °C. Besides, on HBV polymerase, the inhibition at 0.01 µg/mL was found to be 32%, the inhibition at 0.1 µg/mL was 58% and the inhibition at 1 µg/mL was 91%.

Regarding `CSc1ncc(C(=O)N2CCN(C)CC2)c(Nc2ccc3[nH]ncc3c2)n1` [Example 31, 4-(1H-5-indazolylamino)-5-[(4-methyl-1-piperazinyl)-carbonyl]-2-methylthiopyrimidine], the melting point was 153 to 155 °C. On HBV polymerase, the inhibition at 0.01 µg/mL was 43%, the inhibition at 0.1 µg/mL was found to be 58% and the inhibition at 1 µg/mL was 82%.

On to `CSc1ncc(C(=O)N2CCN(C)CC2)c(Nc2ccc3cn[nH]c3c2)n1` [Example 32, 4-(1H-6-indazolylamino)-5-[(4-methyl-1-piperazinyl)-carbonyl]-2-methylthiopyrimidine], for which the melting point was in the range of 102 to 106 °C. Moreover, at HBV polymerase, the inhibition at 0.01 µg/mL came out at 26%, the inhibition at 0.1 µg/mL stood at 40% and the inhibition at 1 µg/mL worked out at 62%.

`CSc1ncc(C(=O)N2CCN(CCO)CC2)c(Nc2ccc3[nH]ncc3c2)n1` [Example 33, 5-[[4-(2-hydroxyethyl)-1-piperazinyl]carbonyl]-4-(1H-5-indazolylamino)-2-methylthiopyrimidine] returned a melting point of 166 to 170 °C. At HBV polymerase, the inhibition at 0.01 µg/mL was 11%, the inhibition at 0.1 µg/mL was 32% and the inhibition at 1 µg/mL is 53%.

For `CSc1ncc(C(=O)N2CCN(CCO)CC2)c(Nc2ccc3cn[nH]c3c2)n1` [Example 34, 5-[[4-(2-hydroxyethyl)-1-piperazinyl]carbonyl]-4-(1H-6-indazolylamino)-2-methylthiopyrimidine], the melting point lay within 114 to 117 °C. Moreover, at HBV polymerase, the inhibition at 0.01 µg/mL turned out to be 15%, the inhibition at 0.1 µg/mL was found to be 43% and the inhibition at 1 µg/mL turned out to be 59%.
